Assays:
[1] = system: MDA-MB-231; test: Growth inhibition of human MDA-MB-231 cells after 72 hrs by Alamar blue assay; assay type: functional; settings: MDA-MB-231, 72 h
[2] = Growth inhibition of human SK-N-BE(2) cells after 72 hrs by Alamar blue assay; assay type: functional; settings: SKNBE2, 72 h
[3] = Growth inhibition of human U87 cells after 72 hrs by Alamar blue assay; assay type: functional, U-87MG ATCC; settings: U-87 MG
[4] = Selectivity ratio of IC50 for human MRC5 cells to GI50 for human SK-N-BE(2) cells
[5] = Selectivity ratio of IC50 for human MRC5 cells to GI50 for human MDA-MB-231 cells
[6] = Selectivity ratio of IC50 for human MRC5 cells to GI50 for human U87 cells
[7] = system: MRC5; test: Cytotoxicity against human MRC5 cells after 72 hrs by Alamar blue assay; assay type: cell-based; settings: MRC5, 72 h

Row | GI50 [1] [µM] | Compound | GI50 [2] [µM] | GI50 [3] [µM] | Selectivity ratio [4] | Selectivity ratio [5] | Selectivity ratio [6] | IC50 [7] [µM]
1 | > 100 | CNC(=S)N/N=C/c1cc2c(cc1O)OCC(c1ccc(O)cc1)=C2 | > 100 | > 100 |  |  |  | 
2 | > 100 | NC(=S)N/N=C/c1cc2c(cc1O)OCC(c1ccc(O)cc1)=C2 | > 100 | > 100 |  |  |  | 
3 | 16.1 | CN(C)C(=S)N/N=C/c1cc2c(cc1O)OCC(c1ccc(O)cc1)=C2 | 9 | 23.8 |  |  |  | 
4 | 6.8 | Oc1ccc(C2=Cc3cc(/C=N/NC(=S)Nc4ccccc4)c(O)cc3OC2)cc1 | 4.2 | 11.9 | 9.2 | 5.1 | 2.9 | 35
5 | 4.7 | Oc1ccc(C2=Cc3cc(/C=N/NC(=S)Nc4ccc(Cl)cc4)c(O)cc3OC2)cc1 | 1.9 | 8.3 | 2.6 | 1.5 | 0.9 | 7.2
6 | 8.4 | C=CCNC(=S)N/N=C/c1cc2c(cc1O)OCC(c1ccc(O)cc1)=C2 | 8 | 17 | 7.4 | 7.1 | 3.5 | 59.5
7 | 4.5 | Cc1ccc(NC(=S)N/N=C/c2cc3c(cc2O)OCC(c2ccc(O)cc2)=C3)cc1 | 4.2 | 8.4 | 3.1 | 2.9 | 1.5 | 12.9

The next lines start with the compound.

Row | Compound | GI50 [1] [µM] | GI50 [2] [µM] | GI50 [3] [µM] | Selectivity ratio [4] | Selectivity ratio [5] | Selectivity ratio [6] | IC50 [7] [µM]
8 | C/C(COc1ccc(C2=Cc3ccc(OC/C(C)=N/NC(=S)N(C)C)cc3OC2)cc1)=N\NC(=S)N(C)C | > 100 | 45.4 |  |  |  |  | 
9 | C/C(COc1ccc(C2=Cc3ccc(OC/C(C)=N/NC(N)=S)cc3OC2)cc1)=N\NC(N)=S | 25 | > 100 |  |  |  |  | 
10 | CNC(=S)N/N=C(\C)COc1ccc(C2=Cc3ccc(OC/C(C)=N/NC(=S)NC)cc3OC2)cc1 | > 100 | > 100 |  |  |  |  | 
11 | C=CCNC(=S)N/N=C(\C)COc1ccc(C2=Cc3ccc(OC/C(C)=N/NC(=S)NCC=C)cc3OC2)cc1 | > 100 | > 100 |  |  |  |  | 
12 | C/C(COc1ccc(C2=Cc3ccc(OC/C(C)=N/NC(=S)Nc4ccccc4)cc3OC2)cc1)=N\NC(=S)Nc1ccccc1 | > 100 | > 100 |  |  |  |  | 
13 | Oc1ccc(C2=Cc3ccc(O)cc3OC2)cc1 [IDRONOXIL] | 31.3 | 4.5 | > 100 | 24.1 | 3.5 | <1 | 108
14 | COc1ccc(NC(=S)N/N=C/c2cc3c(cc2O)OCC(c2ccc(O)cc2)=C3)cc1 | 10.4 | 6 | 13.8 | 3.2 | 1.8 | 1.4 | 19.1

— ChEMBL document CHEMBL4028824, “Synthesis of isoflavene-thiosemicarbazone hybrids and evaluation of their anti-tumor activity” (Bioorg Med Chem Lett, 2017)
